Reference: US20230077514A1, “METHODS FOR MODULATING CALORIE CONSUMPTION” (Duke University, priority 2020, published 2023)
“Also recorded” adds a separate entry of the source.

Legend:
cervical vagus nerve = test: Whole nerve electrophysiology of the cervical vagus during duodenal sugar perfusion; format: in vivo, mice; conditions: for vagal response (firing) to intraduodenal sugar vs baseline: wild-type mice, sucrose 300 mM, D-glucose 150 mM, fructose 150 mM, galactose 150 mM, maltodextrin 8%, α-MGP 150 mM, sucralose 15 mM, acesulfame K 15 mM, saccharin 15 mM
Procedure: FIG. 1. […] Model: sugars are perfused into the duodenal lumen while nerve activity is recorded from the cervical vagus of anesthetized wild-type mice.
The proximal duodenum was perfused with sugars, thus bypassing any gustatory or gastric activation. Sugars were tested based on the following properties: both caloric content and sweet taste (sucrose [300 mM], D-glucose [150 mM], […], galactose [150 mM]), calorie-only (maltodextrin [8%], alpha-methylglucopyranoside (α-MGP) [150 mM]), or taste-only (sucralose [15 mM], acesulfame-K [15 mM], saccharin [15 mM]) (FIG. 1, FIG. 2, FIG. 3, FIG. 4).

[1] = target: T1, sweet taste receptor T1R2/3 (Mus musculus, UniProt Q925D8+Q925I4); test: Receptor pharmacology in whole nerve (vagal) electrophysiology: sweet taste receptor block; format: in vivo, mice; conditions: gurmarin 7 µM
T1 construct: from tissue; host or cells: living mouse: duodenal lumen perfused, cervical vagus nerve recorded
T1 sequence (Q925I4 20-843): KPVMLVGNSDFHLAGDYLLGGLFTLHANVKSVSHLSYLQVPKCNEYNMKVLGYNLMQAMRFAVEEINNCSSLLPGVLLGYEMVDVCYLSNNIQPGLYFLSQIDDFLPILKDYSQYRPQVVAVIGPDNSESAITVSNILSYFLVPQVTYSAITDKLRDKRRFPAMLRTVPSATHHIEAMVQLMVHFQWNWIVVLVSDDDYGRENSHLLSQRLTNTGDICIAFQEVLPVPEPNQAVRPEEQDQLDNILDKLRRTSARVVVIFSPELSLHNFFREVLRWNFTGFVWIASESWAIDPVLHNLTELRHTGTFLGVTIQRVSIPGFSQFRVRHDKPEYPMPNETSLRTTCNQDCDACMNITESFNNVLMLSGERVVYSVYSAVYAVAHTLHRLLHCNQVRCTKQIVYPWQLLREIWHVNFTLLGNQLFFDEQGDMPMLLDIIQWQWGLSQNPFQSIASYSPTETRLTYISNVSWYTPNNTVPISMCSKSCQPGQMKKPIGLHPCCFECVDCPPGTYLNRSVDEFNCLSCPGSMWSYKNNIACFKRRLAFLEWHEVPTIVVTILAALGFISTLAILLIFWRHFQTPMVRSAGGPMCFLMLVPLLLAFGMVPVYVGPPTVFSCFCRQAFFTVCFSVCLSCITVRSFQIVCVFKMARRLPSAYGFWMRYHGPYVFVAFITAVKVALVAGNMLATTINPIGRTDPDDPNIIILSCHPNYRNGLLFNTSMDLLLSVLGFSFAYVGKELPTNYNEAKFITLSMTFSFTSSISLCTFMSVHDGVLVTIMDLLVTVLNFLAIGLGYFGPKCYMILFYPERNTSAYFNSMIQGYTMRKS
T1 sequence (Q925D8 21-858): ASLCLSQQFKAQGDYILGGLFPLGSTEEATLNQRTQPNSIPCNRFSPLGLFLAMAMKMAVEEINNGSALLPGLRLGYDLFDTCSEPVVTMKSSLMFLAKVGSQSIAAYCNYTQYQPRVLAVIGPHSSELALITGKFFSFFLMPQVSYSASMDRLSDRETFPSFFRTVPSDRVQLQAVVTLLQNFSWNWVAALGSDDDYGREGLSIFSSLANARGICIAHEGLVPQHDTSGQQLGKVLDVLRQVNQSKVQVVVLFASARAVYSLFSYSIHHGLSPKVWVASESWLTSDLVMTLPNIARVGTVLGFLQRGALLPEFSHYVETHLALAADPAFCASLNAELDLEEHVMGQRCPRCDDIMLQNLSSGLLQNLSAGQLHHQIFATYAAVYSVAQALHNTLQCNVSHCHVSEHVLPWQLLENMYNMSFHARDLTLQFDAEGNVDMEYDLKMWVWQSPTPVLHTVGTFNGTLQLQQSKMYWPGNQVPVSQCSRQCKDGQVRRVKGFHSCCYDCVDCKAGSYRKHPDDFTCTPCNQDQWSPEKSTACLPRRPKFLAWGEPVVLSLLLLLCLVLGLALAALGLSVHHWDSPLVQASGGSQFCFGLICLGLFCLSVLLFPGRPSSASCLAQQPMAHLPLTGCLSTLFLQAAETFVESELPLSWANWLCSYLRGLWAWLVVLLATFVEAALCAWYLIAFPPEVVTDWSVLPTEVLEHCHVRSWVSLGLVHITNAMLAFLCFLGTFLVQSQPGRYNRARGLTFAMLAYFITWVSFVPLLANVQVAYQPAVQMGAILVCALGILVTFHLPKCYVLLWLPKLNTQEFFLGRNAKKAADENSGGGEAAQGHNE
Description: (FIG. 21 and FIG. 22), showing neuropod cells use two distinct receptor mechanisms to transduce caloric and non-caloric sugar signals to the vagus nerve.

P2 purinoceptor = test: Vagal nerve recording with P2 purinoceptor antagonist; format: in vivo, mice; conditions: PPADS 25 mg/kg
Description: Margolskee, J. Biol. Chem. 277(1): 1-4 (2002); Lu et al., Nature Com. 10(1): (2019). […] (FIG. 33, FIG. 36, and FIG. 37).

duodenal Cck cells = test: Vagal recording with intraluminal 532 nm laser silencing of duodenal Cck (neuropod) cells; format: in vivo; conditions: Cck_Halo mice; sucrose 300 mM, α-mgp 150 mM, sucralose 15 mM
Procedure: FIG. 9. Model: intraluminal 532 nm laser activates NpH3 chloride channels to silence duodenal Cck cells in CckCRE_NpH3 mice.
Using whole nerve electrophysiology of the cervical vagus nerve, it was confirmed that vagal activity increases in the presence of luminal sugars. Kaelberer et al., Science 361 (6408) (2018). The proximal duodenum was perfused with sugars, thus bypassing any gustatory or gastric activation. Sugars were tested based on the following properties: both caloric content and sweet taste (sucrose [300 mM], D-glucose [150 mM], fructose [150 mM], galactose [150 mM]), calorie-only (maltodextrin [8%], alpha-methylglucopyranoside (α-MGP) [150 mM]), or taste-only (sucralose [15 mM], acesulfame-K [15 mM], saccharin [15 mM]) (FIG. 1, FIG. 2, FIG. 3, FIG. 4). […] Intraluminal application of the 532 nm laser eliminated the vagal response to sucrose [300 mM], α-mgp [150 mM], and sucralose [15 mM] (n ≥ 5, p < 0.001) (FIG. 10 and FIG. 11; laser activation and wild-type controls). Thus, neuropod cells are required to sense both the calorie and taste properties of sugar and communicate these signals onto vagal neurons.
Cck neuropod cells in the duodenum express receptors for fatty acids (FIG. 69), analyzed by bulk sequencing Cck-positive and Cck-negative epithelial cells in the duodenum of CckGFP mice. Thus, CCK cells in the duodenum may signal the presence of fatty acids to the vagus nerve. To test this, the silencing optogenetic channel was expressed in Cck cells of mice. […] In the duodenum, there is overlap in cells expressing CCK and the vesicular glutamate transporter 1 (Vglut1), required for release of the neurotransmitter glutamate. To test whether glutamate is required as a signaling molecule for fat transduction to the vagus nerve, a cocktail of glutamate receptor inhibitors was perfused through the duodenum of wild type mice. Blockade of ionotropic and metabotropic glutamate receptors blocked vagal firing elicited by glutamate (FIG. 71). […] In an initial baseline test, mice freely explore an arena for 20 minutes, during which their position in the arena measured. […]

human duodenal organoids = test: Glutamate release assay on human duodenal organoids; format: cell-based; conditions: sucrose 300 mM, α-MGP 150 mM, sucralose 15 mM, n = 1 human
[2] = Two-bottle choice between iso-sweet sucrose and sucralose; format: in vivo, mice
Procedure: Domingos et al., Nature Neurosci. […] Behav. […] Bennink et al., J. Nucl. […] Perez et al., Pharmacol. Biochem. Behav. […] Thus, a goal of this study was to determine if synaptic gut-brain neurotransmission drives sugar preference.
CckCRE_NpH3 mice (n = 8) and littermate controls (n = 5) were implanted with the flexible fiberoptic and given the choice between iso-sweet sucrose [300 mM] and sucralose [15 mM] in a one-hour choice assay (FIG. 38 and FIG. 53). […] Whether the caloric neurotransmitter glutamate was contributing to the sucrose preference was tested.

[3] = tested on: murine small intestinal organoids; test: Glutamate release assay on murine small intestinal organoids; format: cell-based, mouse; conditions: sucrose 300 mM, α-MGP 150 mM, sucralose 15 mM; for glutamate concentration in the supernatant after stimulation: PBS control 2.632 ± 1.280; for glutamate release compared to PBS: p < 0.05
Procedure: Slc5a1+ Cck-GFP cells express transcripts for the vesicular glutamate transporters Slc17a6, Slc17a7, Slc17a8 and the excitatory neurotransmitter transporters Slc1a1, Slc1a2, and Slc1a3 (FIG. 4). […] A glutamate release assay was performed on murine small intestinal organoids to determine if glutamate release was stimuli specific (FIG. 24-left). α-MGP was used for a caloric stimulus with no sweet taste, because it is not metabolized once it enters the cell and thus allowed for isolation of cell entry. After nutrient stimulation, the glutamate concentration in the supernatant was 2.632 ± 1.280 ng/µL for PBS control, 13.460 ± 1.724 ng/µL for sucrose [300 mM], 18.183 ± 7.904 ng/µL for α-MGP [150 mM], and 6.053 ± 1.169 ng/µL for sucralose [15 mM].

Compound: O=C1NS(=O)(=O)c2ccccc21 [saccharin]
- vagal response (firing) to intraduodenal sugar vs baseline (cervical vagus nerve): no significant

Compound: O=C(CO)[C@@H](O)[C@H](O)[C@H](O)CO [fructose]
- vagal response at high concentrations (cervical vagus nerve; fructose 600 mM and 1 M, n.s.): blunted vagal response
- vagal response (firing) to intraduodenal sugar vs baseline (cervical vagus nerve): no significant

Compound: gurmarin
- effect on vagal firing elicited by sucralose ([1]; sucralose 15 mM): abolished; also recorded: inhibited
- effect on vagal response to sucrose ([1]; sucrose 300 mM): did not affect
- effect on vagal response to α-MGP ([1]; α-MGP 150 mM): did not affect

Compound: Cc1nc(N=Nc2ccc(S(=O)(=O)O)cc2S(=O)(=O)O)c(COP(=O)(O)O)c(C=O)c1O [PPADS, pyridoxalphosphate-6-azophenyl-2’,4'-disulfonic acid]
- time to peak vagal firing rate to sucralose (P2 purinoceptor; sucralose 15 mM): prolonged
- effect on vagal response to sucralose (P2 purinoceptor; sucralose 15 mM, wild-type mice): significantly attenuates; also recorded: abolished
- effect on vagal response to sucrose (P2 purinoceptor; sucrose 300 mM): not affected
- effect on vagal response to α-MGP (P2 purinoceptor; α-MGP 150 mM): not affected

Compound: OC[C@H]1O[C@@](CO)(O[C@H]2O[C@H](CO)[C@@H](O)[C@H](O)[C@H]2O)[C@@H](O)[C@@H]1O [sucrose]
- vagal response with Cck cells silenced by 532 nm laser (duodenal Cck cells): eliminated
- vagal response (firing) to intraduodenal sugar vs baseline (cervical vagus nerve): responds significantly
- glutamate release compared to PBS control (human duodenal organoids): elicited glutamate release; also recorded: release significant amounts of glutamate
- preference for sucrose ([2]; CckCRE_NpH3 mice, control 473 nm laser, one-hour choice): 90.8% ± 3.74%
- preference for sucrose ([2]; CckCRE_NpH3 mice, silencing 532 nm laser, one-hour choice vs sucralose 15 mM): 58.9% ± 3.92%
- preference for sucrose ([2]; negative genotype littermate controls, 473 nm): 84.2% ± 6.30%
- preference for sucrose ([2]; negative genotype littermate controls, 532 nm): 87.7% ± 2.21
- glutamate concentration in the supernatant after stimulation [3]: 13.460 ± 1.724 ng/µL
- glutamate release compared to PBS [3]: significantly higher; also recorded: elicit significant release of glutamate

Compound: CC1=CC(=O)[N-]S(=O)(=O)O1.[K+] [acesulfame K]
- vagal response (firing) to intraduodenal sugar vs baseline (cervical vagus nerve): responds significantly

Compound: COC1OC(CO)C(O)C(O)C1O (stereo not drawn) [α-MGP, alpha-methylglucopyranoside]
- vagal response with Cck cells silenced by 532 nm laser (duodenal Cck cells): eliminated
- vagal response (firing) to intraduodenal sugar vs baseline (cervical vagus nerve): responds significantly
- glutamate release compared to PBS control (human duodenal organoids): elicited glutamate release
- glutamate release compared to PBS control (human duodenal organoids; listed as aMGP): release significant amounts of glutamate
- glutamate concentration in the supernatant after stimulation [3]: 18.183 ± 7.904 ng/µL
- glutamate release compared to PBS [3]: significantly higher
- glutamate release compared to PBS ([3]; listed as aMGP): elicit significant release of glutamate

Compound: O=C[C@H](O)[C@@H](O)[C@@H](O)[C@H](O)CO [galactose]
- vagal response (firing) to intraduodenal sugar vs baseline (cervical vagus nerve): elicited significant vagal firing
